Columns and labels:
[1] = molecular target: T1, LPL (lipoprotein lipase) (Mus musculus, UniProt P11152); assay: Confirmation test of LPL activation effect in mouse skeletal muscle cells (C2C12 cells); format: cell-based; conditions: 8 hours exposure, vs control group
T1 construct: endogenous in cells; host or cells: C2C12 cells, differentiated
T1 sequence (P11152 28-474): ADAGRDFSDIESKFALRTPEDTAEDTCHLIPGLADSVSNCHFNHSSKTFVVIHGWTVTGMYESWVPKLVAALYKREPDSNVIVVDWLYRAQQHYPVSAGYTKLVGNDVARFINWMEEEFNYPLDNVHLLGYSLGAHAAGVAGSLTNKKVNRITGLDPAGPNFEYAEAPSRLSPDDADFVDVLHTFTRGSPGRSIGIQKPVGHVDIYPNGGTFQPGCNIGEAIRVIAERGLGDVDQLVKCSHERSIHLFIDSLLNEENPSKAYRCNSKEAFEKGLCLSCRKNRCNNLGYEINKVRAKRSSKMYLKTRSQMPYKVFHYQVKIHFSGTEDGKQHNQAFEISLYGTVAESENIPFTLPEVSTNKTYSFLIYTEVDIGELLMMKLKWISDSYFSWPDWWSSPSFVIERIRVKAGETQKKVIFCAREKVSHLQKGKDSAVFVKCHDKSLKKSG
Protocol: Human skeletal muscle cells (human skeletal muscle myoblasts) or mouse skeletal muscle cells (C2C12 cells) that were seeded onto plates, cultured, and differentiated were exposed to a 0.3% dimethyl sulfoxide-containing culture medium in which the compound of the present invention was dissolved (concentration: 10 μM or 30 μM). The medium was removed 8 hours after exposure, 10 mM of Tris-HCl buffer (150 mM NaCl, 10 μ/mL; containing heparin sodium) was added to the cells, and the cells were incubated at 37° C. in the presence of 5% CO2 for 10 minutes. LPL activity in the supernatant was measured using an LPL activity assay kit (made by Roar Biomedical Inc.). LPL activity was evaluated based on the increase in fluorescence intensity 10 to 70 minutes after mixing the supernatant with the LPL substrate. The mean value of the increase in fluorescence intensity of the cells exposed to a 0.3% dimethyl sulfoxide-containing culture medium […] was used as mean value of the control group. Note that the compounds of Examples 18, 19, 32, 45 and 57 were tested using human skeletal muscle cells, and other compounds were tested using mouse skeletal muscle cells. The rate of increase (%) was calculated from the measured values of LPL activity in the control group and the experimental group, according to the following formula. Rate of increase in LPL activity (%)=[(mean value of the experimental group)−(mean value of the control group)]/(mean value of the control group)×100

SMILES	Rate of increase in LPL activity ([1]; amount of addition 10 μM) [%]	Rate of increase in LPL activity ([1]; amount of addition 30 μM) [%]	melting point [°C]
COc1cc(-c2c[nH]c(-c3ccc(C(F)(F)F)cc3)n2)ccc1OCc1ccc(C#N)cc1 [Example 55]	49	94	231 to 233
COc1cc(OCc2ccccc2)ccc1-c1c[nH]c(-c2ccsc2)n1 [Example 24]	59	77	188 to 192
COc1cc(-c2c[nH]c(-c3cccc(F)c3)n2)ccc1OCc1ccc(C#N)cc1 [Example 59]	22	73	205 to 209
COc1cc(OCc2ccc(Cl)cc2)ccc1-c1c[nH]c(-c2cccc(Cl)c2)n1.Cl [Example 113]	4	123	223 to 226
COc1cc(-c2c[nH]c(-c3cc(Cl)cc(Cl)c3)n2)ccc1OCc1ccc(Cl)cc1 [Example 33]	60	84	142 to 145
COc1cc(OCc2ccccc2)ccc1-c1c[nH]c(-c2ccc(C)cc2)n1 [Example 109]	12	77	219 to 222
COc1cc(OCc2ccc(Br)cc2F)ccc1-c1c[nH]c(-c2ccc(Cl)cc2)n1 [Example 80]	21	302	191 to 195
COc1cc(OCc2ccc(Br)cc2F)ccc1-c1c[nH]c(-c2ccc(C(C)(C)C)cc2)n1 [Example 90]	18	130	177 to 180
COc1cc(OCc2ccc(Br)cc2F)ccc1-c1c[nH]c(-c2ccccc2C(F)(F)F)n1.Cl [Example 81]	32	89	224 to 228
COc1cc(OCc2ccccc2)ccc1-c1c[nH]c(-c2cccc(F)c2)n1.Cl [Example 54]	18	87	231 to 235
COC(=O)c1ccc(-c2nc(-c3ccc(OCc4ccc(Br)cc4F)cc3OC)c[nH]2)cc1 [Example 92]	42	123	158 to 159
COc1cc(OCc2ccccc2)ccc1-c1c[nH]c(-c2cc(F)cc(F)c2)n1.Cl [Example 121]	113	270	247 to 249
COc1cc(-c2c[nH]c(-c3ccc(C)cc3)n2)ccc1OCc1ccccc1.Cl [Example 5]	14	42	244 to 245
COc1cc(-c2c[nH]c(-c3ccsc3)n2)ccc1OCc1cccc(C#N)c1.Cl [Example 72]	70	123	224 to 227
COc1cc(OCc2ccc(Cl)cc2)ccc1-c1c[nH]c(-c2cc(Cl)cc(Cl)c2)n1.Cl [Example 118]	80	102	233 to 241
COc1cc(OCc2ccc(Cl)cc2F)ccc1-c1c[nH]c(-c2ccc(C(F)(F)F)cc2)n1 [Example 132]	35	213	165 to 166
COc1cc(-c2c[nH]c(-c3ccsc3)n2)ccc1OCc1ccc(Cl)cc1 [Example 71]	42	114	197 to 201
COc1cc(OCc2ccccc2)ccc1-c1c[nH]c(-c2cccc(C(F)(F)F)c2)n1 [Example 126]	99	297	159 to 162

SMILES	Rate of increase in LPL activity ([1]; amount of addition 10 μM) [%]	Rate of increase in LPL activity ([1]; amount of addition 30 μM) [%]	melting point [°C]
COc1cc(OCc2ccc(C#N)cc2)ccc1-c1c[nH]c(-c2ccc(Cl)c(Cl)c2)n1 [Example 111]	61	81	137 to 140
COc1cc(OCc2ccccc2)ccc1-c1c[nH]c(-c2ccc(F)cc2)n1.Cl [Example 42]	47	131	217 to 220
COc1ccc(-c2nc(-c3ccc(OCc4ccccc4)cc3OC)c[nH]2)cc1.Cl [Example 128]	49	208	154 to 165
COc1cc(OCc2ccc(Cl)cc2)ccc1-c1c[nH]c(-c2ccc(C(C)(C)C)cc2)n1 [Example 115]	62	88	154 to 157
COc1cc(-c2c[nH]c(-c3ccc(F)cc3)n2)ccc1OCc1ccc(C#N)cc1 [Example 56]	38	62	224 to 226
COc1cc(OCc2ccc(Cl)cc2)ccc1-c1c[nH]c(-c2cccc(C(F)(F)F)c2)n1.Cl [Example 119]	67	174	231 to 236
COc1cc(OCc2ccc(C#N)cc2)ccc1-c1c[nH]c(-c2ccc(C(F)(F)F)cc2)n1 [Example 17]	81	143	182 to 184
COc1cc(OCc2ccc(Br)cc2F)ccc1-c1c[nH]c(-c2ccc(F)c(Cl)c2)n1 [Example 103]	30	92	237 to 243
COc1cc(-c2c[nH]c(-c3ccc(F)cc3)n2)ccc1OCc1ccccc1C#N [Example 50]	20	70	204 to 206
COc1cc(-c2c[nH]c(-c3ccoc3)n2)ccc1OCc1ccccc1 [Example 26]	31	51	177 to 179
COc1cc(OCc2ccc(Cl)cc2)ccc1-c1c[nH]c(-c2ccc(F)cc2)n1 [Example 43]	64	157	174 to 176
COc1cc(OCc2ccc(Cl)cc2)ccc1-c1c[nH]c(-c2ccccc2)n1.Cl [Example 10]	46	275	244 to 246
COc1cc(-c2c[nH]c(-c3ccsc3)n2)ccc1OCc1ccc(Br)cc1F.Cl [Example 69]	52	142	251 to 252
COc1cc(-c2c[nH]c(-c3cccc(C(F)(F)F)c3)n2)ccc1OCc1ccc(Br)cc1F [Example 51]	16	115	173 to 174
COc1cc(OCc2ccc(Br)cc2F)ccc1-c1c[nH]c(-c2cccc(Cl)c2)n1.Cl [Example 88]	12	98	231 to 236
COc1cc(OCc2ccc(C#N)cc2)ccc1-c1c[nH]c(-c2ccc(C(C)(C)C)cc2)n1 [Example 116]	36	84	177 to 184
COc1cc(-c2c[nH]c(-c3cccs3)n2)ccc1OCc1ccc(Cl)cc1 [Example 31]	10	38	197 to 200
COc1cc(OCc2ccccc2)ccc1-c1c[nH]c(-c2ccc(Cl)cc2)n1 [Example 123]	11	42	160 to 163

— patent US8329739B2, “Phenylimidazole compounds” (Otsuka Pharmaceutical Factory, Inc., priority 2009, dated 2012)
